Tested on: collagen 1 (COL1)
Assay: WI-38 collagen 1 inhibition assay
Format: cell-based, human
Details: Cellular EC50, WI-38 cells; values are classes of LogEC50
From the text: All compounds were profiled for cellular potency in inhibition of collagen 1 (COL1) protein translation using a phenotypic screening platform.
WI-38 cells (ATCC® CCL-75™) were maintained in MEM EAGLE (NEAA) W. GLUTAMIN (Biological Industries, Cat. 06-1040-15-1A) containing 10% fetal bovine serum (FBS) and 1% Penicillin-Streptomycin Solution. To synchronize the cells (cell cycle synchronization) prior to induction of collagen synthesis, the cells were starved using DMEM-low glucose supplemented with 0.25% FBS for two hours and then without FBS for 24 hours. To induce collagen synthesis, the cells were treated with a collagen induction cocktail for the indicated time. Compounds were added with induction.
Cells in 96-well or 384-well plates were fixed for 20 min in 4% paraformaldehyde (PFA, ENCO, Cat. sc-281692). Following two washes with 1×PBS, cells were treated with hydrogen peroxide (Acros, Cat: 7722-84-1) for 10 minutes and then washed twice with 1×PBS. Cells were then incubated over-night at 4° C. with Anti-Collagen I (Sigma-Aldrich, Cat: C 2456) antibody and washed three times with 1×PBS. Cells were then incubated with a suitable secondary fluorescently-tagged antibody and nuclei stained with DAPI, for 1 hour, and then washed 3 times with 1×PBS.
Cell images were taken with Operetta (Perkin Elmer, USA), a wide-field fluorescence microscope at 20× magnification. After acquisition, the images were transferred to Columbus software (Perkin-Elmer) for image analysis. In Columbus, cells were identified by their nucleus, using the “Find Nuceli” module and cytoplasm was detected based on the secondary antibody channel. Subsequently, the fluorescent signal was enumerated in the identified cell region. Data was exported to a data analysis and visualization software, Tibco Spotfire, USA.

| Compound | COL1 Efficacy (LogEC50) |
| --- | --- |
| CC(=O)N1CCC(Oc2ccc(C(=O)Nc3nc(-c4ccccc4Cl)cs3)nc2)CC1 [compound 440, 5-((1-acetylpiperidin-4-yl)oxy)-N-(4-(2-chlorophenyl)thiazol-2-yl)picolinamide] | +++ (+++: <−6) |
| COCC(=O)N1CC2(C1)CN(c1ccc(C(=O)Nc3nc(-c4ccccc4Cl)cs3)nc1)C2 [Compound 450, N-(4-(2-chlorophenyl)thiazol-2-yl)-5-(6-(2-methoxyacetyl)-2,6-diazaspiro[3.3]heptan-2-yl)picolinamide] | +++ (+++: <−6) |
| COCCOc1ccccc1-c1csc(NC(=O)c2ccc(C)nc2)n1 [Compound 341, N-[4-[2-(2-methoxyethoxy)phenyl]thiazol-2-yl]-6-methyl-pyridine-3-carboxamide] | ++ (++: −5 to −6) |
| O=C(Nc1nc(-c2ccccc2Cl)cs1)N1CCC(N2CCOCC2)CC1 [compound 360, N-[4-(2-chlorophenyl)thiazol-2-yl]-4-morpholino-piperidine-1-carboxamide] | + (+: >−5) |
| O=C(Nc1nc(C2CCOCC2)cs1)c1ccc(N2CCOCC2)cn1 [compound 393, 5-morpholino-N-(4-(tetrahydro-2H-pyran-4-yl)thiazol-2-yl)picolinamide] | ++ (++: −5 to −6) |
| Cc1ccc(C(=O)Nc2nc(-c3cncnc3C)cs2)cn1 [Compound 347, 6-methyl-N-[4-(4-methylpyrimidin-5-yl)thiazol-2-yl]pyridine-3-carboxamide] | ++ (++: −5 to −6) |
| COc1ncccc1-c1csc(NC(=O)c2ccc(C)nc2)n1 [Compound 319, N-[4-(2-methoxy-3-pyridyl)thiazol-2-yl]-6-methyl-pyridine-3-carboxamide] | ++ (++: −5 to −6) |
| Cc1ccc(C(=O)Nc2nc(-c3cccc4c3OCCO4)cs2)cn1 [Compound 342, N-[4-(2,3-dihydro-1,4-benzodioxin-5-yl)thiazol-2-yl]-6-methyl-pyridine-3-carboxamide] | ++ (++: −5 to −6) |
| O=C(Nc1nc(-c2ccccc2Cl)cs1)C1CC(N2CCOCC2)C1 (stereo not drawn) [Compound 421, (1s,3s)-N-(4-(2-chlorophenyl)thiazol-2-yl)-3-morpholinocyclobutane-1-carboxamide] | + (+: >−5) |
| CS(=O)(=O)N1CCN(c2ccc(C(=O)Nc3nc(-c4ccccc4Cl)cs3)nc2)CC1 [Compound 403, N-(4-(2-chlorophenyl)thiazol-2-yl)-5-(4-(methylsulfonyl)piperazin-1-yl)picolinamide] | +++ (+++: <−6) |
| C[C@H]1COCCN1c1ccc(C(=O)Nc2nc(-c3ccccc3Cl)cs2)nc1 [compound 464, (S)—N-(4-(2-chlorophenyl)thiazol-2-yl)-5-(3-methylmorpholino)picolinamide] | +++ (+++: <−6) |
| O=C(Nc1nc(-c2ccccc2Cl)cs1)c1ccc(N2CCOCC2)nn1 [compound 366, N-[4-(2-chlorophenyl)thiazol-2-yl]-6-morpholino-pyridazine-3-carboxamide] | +++ (+++: <−6) |
| O=C(Nc1nc(-c2ccccc2Cl)cs1)c1ccc(N2CCC[C@@H](O)C2)cn1 [compound 487, (R)—N-(4-(2-chlorophenyl)thiazol-2-yl)-5-(3-hydroxypiperidin-1-yl)picolinamide] | +++ (+++: <−6) |
| CC(=O)N1CC2(C1)CN(c1ccc(C(=O)Nc3nc(-c4ccccc4Cl)cs3)nc1)C2 [compound 449, 5-(6-acetyl-2,6-diazaspiro[3.3]heptan-2-yl)-N-(4-(2-chlorophenyl)thiazol-2-yl)picolinamide] | +++ (+++: <−6) |
| CS(=O)(=O)N1CCC(Oc2ccc(C(=O)Nc3nc(-c4ccccc4Cl)cs3)nc2)CC1 [compound 438, N-(4-(2-chlorophenyl)thiazol-2-yl)-5-((1-(methylsulfonyl)piperidin-4-yl)oxy)picolinamide] | +++ (+++: <−6) |
| Cc1ncccc1-c1csc(NC(=O)c2ccc(N3CCOCC3)cn2)n1 [compound 371, N-[4-(2-methyl-3-pyridyl)thiazol-2-yl]-5-morpholino-pyridine-2-carboxamide] | ++ (++: −5 to −6) |
| COc1ccc(C(=O)Nc2nc(-c3cc(Cl)cc(Cl)c3)cs2)cc1 [Compound 315, N-(4-(3,5-dichlorophenyl)thiazol-2-yl)-4-methoxybenzamide] | +++ (+++: <−6) |

| Compound | COL1 Efficacy (LogEC50) |
| --- | --- |
| COc1ccc(C(=O)Nc2nc(-c3ccc(F)cc3F)cs2)cc1 [Compound 325, N-[4-(2,4-difluorophenyl)thiazol-2-yl]-4-methoxy-benzamide] | +++ (+++: <−6) |
| O=C(Nc1nc(-c2ccccc2Cl)cs1)c1ccc(N2CCOCC2)cc1C(F)(F)F [Compound 411, N-(4-(2-chlorophenyl)thiazol-2-yl)-4-morpholino-2-(trifluoromethyl)benzamide] | +++ (+++: <−6) |
| O=C(Nc1nc(-c2ccccc2Cl)cs1)c1cnc(N2CCOCC2)cn1 [compound 367, N-[4-(2-chlorophenyl)thiazol-2-yl]-5-morpholino-pyrazine-2-carboxamide] | +++ (+++: <−6) |
| COc1ccc(C(=O)Nc2nc(-c3cncnc3C)cs2)cc1 [Compound 335, 4-methoxy-N-[4-(4-methylpyrimidin-5-yl)thiazol-2-yl]benzamide] | + (+: >−5) |
| COc1cc(N2CCOCC2)ccc1C(=O)Nc1nc(-c2ccccc2Cl)cs1 [Compound 441, N-(4-(2-chlorophenyl)thiazol-2-yl)-2-methoxy-4-morpholinobenzamide] | ++ (++: −5 to −6) |
| CC(=O)N1CCN(c2ccc(C(=O)Nc3nc(-c4ccccc4CO)cs3)nc2)CC1 [compound 470, 5-(4-acetylpiperazin-1-yl)-N-(4-(2-(hydroxymethyl)phenyl)thiazol-2-yl)picolinamide] | +++ (+++: <−6) |
| CN1CCN(c2ccc(C(=O)Nc3nc(-c4ccccc4Cl)cs3)cc2)CC1 [compound 322, N-[4-(2-chlorophenyl)thiazol-2-yl]-4-(4-methylpiperazin-1-yl)benzamide] | +++ (+++: <−6) |
| CN1CCCC(C(=O)N2CCN(c3ccc(C(=O)Nc4nc(-c5ccccc5Cl)cs4)nc3)CC2)C1 (stereo not drawn) [Compound 467, N-(4-(2-chlorophenyl)thiazol-2-yl)-5-(4-(1-methylpiperidine-3-carbonyl)piperazin-1-yl)picolinamide hemiformate] | +++ (+++: <−6) |
| O=C(Nc1nc(-c2ccccc2Cl)cs1)c1ccc(C(=O)N2CCS(=O)(=O)CC2)cc1 [compound 385, N-(4-(2-chlorophenyl)thiazol-2-yl)-4-(1,1-dioxidothiomorpholine-4-carbonyl)benzamide] | ++ (++: −5 to −6) |
| O=C(Nc1nc(-c2ccccc2Cl)cs1)C1CN(C2CCOCC2)C1 [compound 363, N-[4-(2-chlorophenyl)thiazol-2-yl]-1-tetrahydropyran-4-yl-azetidine-3-carboxamide] | ++ (++: −5 to −6) |
| CN1CCC[C@H]1C(=O)N1CCN(c2ccc(C(=O)Nc3nc(-c4ccccc4Cl)cs3)nc2)CC1 [Compound 466, N-(4-(2-chlorophenyl)thiazol-2-yl)-5-(4-(methylprolyl)piperazin-1-yl)picolinamide] | +++ (+++: <−6) |
| CS(=O)(=O)N1CCN(C(=O)[C@H]2C[C@H](C(=O)Nc3nc(-c4ccccc4Cl)cs3)C2)CC1 [Compound 430, (1r,3r)-N-(4-(2-chlorophenyl)thiazol-2-yl)-3-(4-(methylsulfonyl)piperazine-1-carbonyl)cyclobutane-1-carboxamide] | + (+: >−5) |
| COCCOc1ccccc1-c1csc(NC(=O)c2ccc(N3CCOCC3)cc2)n1 [Compound 378, N-(4-(2-(2-methoxyethoxy)phenyl)thiazol-2-yl)-4-morpholinobenzamide] | + (+: >−5) |
| O=C(Nc1nc(-c2ccccc2Cl)cs1)C1CC(C(=O)N2CCOCC2)C1 (stereo not drawn) [compound 426] | − (−: inactive) |
| O=C(Nc1nc(-c2ccccc2Cl)cs1)c1ccc(N2CCC(CCO)CC2)cn1 [compound 478, N-(4-(2-chlorophenyl)thiazol-2-yl)-5-(4-(2-hydroxyethyl)piperidin-1-yl)picolinamide] | +++ (+++: <−6) |
| CN(C)CCC(=O)N1CCN(c2ccc(C(=O)Nc3nc(-c4ccccc4Cl)cs3)nc2)CC1 [Compound 444, N-(4-(2-chlorophenyl)thiazol-2-yl)-5-(4-(3-(dimethylamino)propanoyl)piperazin-1-yl)picolinamide] | +++ (+++: <−6) |

— US20230212131A1, “COLLAGEN 1 TRANSLATION INHIBITORS AND METHODS OF USE THEREOF” (Anima Biotech Inc., priority 2020, published 2023)
